Assay results as given in US20160207930A1 (LEO PHARMA A/S, priority 2013, published 2016).
pIC50: −log10 of the molar value.

Experiments:
[1] = biological target: T1, NK1 Receptor (Homo sapiens, UniProt P25103); experiment: NK1 receptor mediated intracellular [Ca2+] mobilization in U251 MG cells using FLIPR; format: cell-based; conditions: antagonism of Substance P (EC80), Fluo-4, read-out: NK1R mediated intracellular [Ca^2+] mobilization IC 50
T1 construct: Measurement of NK1 Receptor Mediated Intracellular [Ca^2+]; Mobilization in U251 MG Cells Using FLIPR; endogenous in cells; host or cells: U251 MG cells
How it was run: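 Fluo-4-loaded U251 MG cells preincubated with compound (0.5% DMSO final), checked 5 min for agonism, then 10 min at 37 °C before Substance P at EC80. Peak fluorescence change on FLIPR, normalized to 100 nM Aprepitant maximal response; IC50 by four-parameter logistic fit, reported as pIC50.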

[2] = Hepatic intrinsic clearance following incubation in human liver microsomes; format: in vitro ADME; conditions: 0.5 μM test compound, NADPH, 0-30 min, scaled to g liver
How it was run: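 Compound incubated at 37° C with microsomes diluted to 0.55 mg/mL protein in 50 mM potassium phosphate pH 7.4 plus NADPH regenerating system; sampled 0–30 min and analysed by LC-MS/MS. Clint from ln(% parent remaining) slope, scaled to mL/min/g liver; Eh derived assuming 25.7 g/kg liver, 20.7 mL/min/kg blood flow.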

T1 sequence (P25103 whole entry): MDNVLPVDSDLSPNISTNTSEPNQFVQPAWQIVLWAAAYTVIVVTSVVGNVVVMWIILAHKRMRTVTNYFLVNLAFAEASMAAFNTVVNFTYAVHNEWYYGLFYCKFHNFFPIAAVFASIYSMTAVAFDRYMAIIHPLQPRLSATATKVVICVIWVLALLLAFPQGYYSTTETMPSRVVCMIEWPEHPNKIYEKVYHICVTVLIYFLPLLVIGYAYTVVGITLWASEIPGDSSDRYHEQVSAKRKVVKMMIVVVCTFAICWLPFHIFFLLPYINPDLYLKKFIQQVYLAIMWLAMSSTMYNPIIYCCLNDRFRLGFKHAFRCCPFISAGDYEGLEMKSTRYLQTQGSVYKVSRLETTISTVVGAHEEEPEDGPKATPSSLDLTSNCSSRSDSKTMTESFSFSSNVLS

SMILES | pIC50 [1] | Human in vitro Clint [2]
CC(C)c1cc([C@@H](C)N(C)C(=O)N2CCN3C(=O)CC[C@H]3[C@@H]2c2cccc3c2CCC3)cc(C(F)(F)F)c1 [Compound 81, (1S,8aS)-1-(2,3-dihydro-1H-inden-4-yl)-N—((R)-1-(3-isopropyl-5-(trifluoromethyl)phenyl)ethyl)-N-methyl-6-oxohexahydropyrrolo[1,2-a]pyrazine-2(1H)-carboxamide] | 8.46 | >200 mL/min/g
Cc1cccc(F)c1[C@H]1[C@@H]2CCC(=O)N2CCN1C(=O)N(C)[C@H](C)c1cc(C(F)(F)F)cc(C(F)(F)F)c1 [Compound 82, (1S,8aS)—N—((R)-1-(3,5-bis(trifluoromethyl)phenyl)ethyl)-1-(2-fluoro-6-methylphenyl)-N-methyl-6-oxohexahydropyrrolo[1,2-a]pyrazine-2(1H)-carboxamide] | 9.89 | >200 mL/min/g
C[C@H](c1cc(C(F)(F)F)cc(C(F)(F)F)c1)N(C)C(=O)N1CCN2C(=O)CC[C@H]2[C@@H]1c1ccc(F)cc1 [Compound 85, (1S,8aS)—N—((R)-1-(3,5-bis(trifluoromethyl)phenyl)ethyl)-1-(4-fluorophenyl)-N-methyl-6-oxohexahydropyrrolo[1,2-a]pyrazine-2(1H)-carboxamide] | 7.00 | >200 mL/min/g
